Target: 3',5'-cyclic-AMP phosphodiesterase 4B (Homo sapiens, UniProt Q07343)
Assay: cAMP HTRF Assay to Determine the Activity of hPDE4B1: The inhibiting effect of the compounds on the enzyme activity of human PDE4B1 was measured by the quantification of 5′-adenosine monophosphate (5′-AMP), which is formed from 3′,5′-cyclic adenosine monophosphate (cAMP). Human recombinant enzyme, expressed in Sf9 cells, and the HTRF (homogeneous time-resolved fluorescence) detection method were used in the assay.The test compound or water (control) was mixed with the human recombinant PDE4B1 enzyme (4.8 U) in a buffer consisting of 44.4 mM tris-HCl, 5.28 mM MgCl2, 2.64 mM DTT and 0.044% Tween 20 (pH 7.8). After adding the cAMP enzyme substrate (final concentration 40 nM), the mixture was incubated for 30 minutes at room temperature. Then a fluorescence acceptor (Dye2 marked with cAMP), a fluorescence donor (anti-cAMP antibody marked with a europium cryptate) and the non-specific phosphodiesterase inhibitor IBMX (3-isobutyl-1-methylxanthine; final concentration 1 mM) were added. After 60 min the fluorescence transfer, which correlates with the amount of remaining cAMP, was measured with a microplate reader (Rubystar, BMG) at λex=337 nm, λem=620 nm and λem=665 nm. The enzyme activity was calculated from the quotient formed from the measured signal at 665 nm and that at 620 nm. […]

Chain of 3',5'-cyclic-AMP phosphodiesterase 4B (Q07343 whole entry): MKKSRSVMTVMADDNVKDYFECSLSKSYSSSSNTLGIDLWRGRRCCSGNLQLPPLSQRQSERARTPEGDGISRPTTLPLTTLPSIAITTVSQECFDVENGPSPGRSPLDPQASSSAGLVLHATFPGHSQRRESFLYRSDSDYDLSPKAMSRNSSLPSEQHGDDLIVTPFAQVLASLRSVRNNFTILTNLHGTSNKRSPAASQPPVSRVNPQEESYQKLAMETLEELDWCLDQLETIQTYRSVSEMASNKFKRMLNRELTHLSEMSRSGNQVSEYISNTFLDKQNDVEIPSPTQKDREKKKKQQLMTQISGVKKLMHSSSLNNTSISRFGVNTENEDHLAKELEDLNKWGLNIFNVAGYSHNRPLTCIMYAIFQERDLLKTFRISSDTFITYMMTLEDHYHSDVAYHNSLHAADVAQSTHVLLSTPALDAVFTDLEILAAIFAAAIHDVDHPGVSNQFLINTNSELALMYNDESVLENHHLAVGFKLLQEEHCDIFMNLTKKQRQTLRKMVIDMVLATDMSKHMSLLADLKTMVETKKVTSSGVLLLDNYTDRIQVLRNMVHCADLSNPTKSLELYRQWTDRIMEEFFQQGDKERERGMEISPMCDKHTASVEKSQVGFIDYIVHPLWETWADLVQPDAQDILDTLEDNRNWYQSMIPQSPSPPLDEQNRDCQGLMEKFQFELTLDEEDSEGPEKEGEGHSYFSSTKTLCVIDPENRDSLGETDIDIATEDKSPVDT

## CCc1csc(-c2cnc(N3CC4(CC4)c4ccc(C(=O)N(C)CCO)cc43)nc2)n1
  IC50: < 100 nM

## CNCCN(C)C(=O)c1ccc2c(c1)N(c1ncc(-c3ccccc3F)cn1)CC21CC1
  IC50: < 100 nM
